According to PMC12264943, “Identification of New Human P2X7 Antagonists Using Ligand- and Structure-Based Virtual Screening” (Journal of Chemical Information and Modeling, 2025):
pEC50: −log10 of the molar value. Entries after “also recorded” stand apart in the source; their conditions may differ.

Experiments:
Format in all cases: cell-based
hP2X7 [1] = molecular target: T1, hP2X7 (Homo sapiens, UniProt Q99572); assay: Membrane potential assay with the blue dye (assay optimization); conditions: read-out: ATP EC50
T1 construct: expressed in transfected cells; host or cells: HEK-293, stably transfected (gift of E. Adinolfi's group, Ferrara University)
T1 sequence (Q99572 1-595): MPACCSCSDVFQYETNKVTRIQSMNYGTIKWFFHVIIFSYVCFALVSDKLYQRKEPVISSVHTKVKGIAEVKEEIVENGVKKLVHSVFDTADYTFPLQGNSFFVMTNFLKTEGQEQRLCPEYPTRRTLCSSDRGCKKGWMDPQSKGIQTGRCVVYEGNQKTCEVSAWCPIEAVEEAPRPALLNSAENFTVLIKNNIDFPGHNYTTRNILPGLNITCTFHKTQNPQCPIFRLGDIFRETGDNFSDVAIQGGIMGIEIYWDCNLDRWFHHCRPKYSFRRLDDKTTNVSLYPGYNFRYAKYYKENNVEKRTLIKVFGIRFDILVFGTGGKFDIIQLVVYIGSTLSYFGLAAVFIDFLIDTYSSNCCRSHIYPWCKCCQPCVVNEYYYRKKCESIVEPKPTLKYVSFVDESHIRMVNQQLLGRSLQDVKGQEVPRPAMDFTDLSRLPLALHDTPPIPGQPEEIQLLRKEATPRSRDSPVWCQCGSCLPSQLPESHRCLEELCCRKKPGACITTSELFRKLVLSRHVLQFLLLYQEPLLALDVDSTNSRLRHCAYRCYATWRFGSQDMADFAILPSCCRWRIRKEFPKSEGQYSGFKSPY
From the text: The use of two or more complementary assays for assessing P2X7 modulator activity has been previously applied to help identify false positives as macropore formation is also linked to P2X2 and P2X4. , As P2X receptors are ion channels, they are probably best studied using electrophysiology techniques such as single-cell patch clamp, but these techniques can be laborious when testing libraries of compounds.

HEK-293 WT cells = assay: Cytotoxicity assay (CellTiter Blue); conditions: 10 μM, 24 h, nontransfected HEK-293 cells
Method: HEK-293 WT cells were seeded at 4 × 10^4 cells/well in 96-well plates precoated with poly-L-lysine. After 24 h, the cells were washed with DPBS and treated with test compounds (10 μM) in 2% FBS-containing medium for 24 h. After this, the medium containing the test compounds was replaced with 20% CellTiter-Blue reagent (Promega) in 2% FBS medium. After a 2-h incubation, fluorescence (excitation: […]; emission: […]) was measured using a Clariostar plate reader. Data were normalized to untreated control cells (100%) and wells without cells (0%).
5 Concentration inhibition curve determination for compound 2g (A) and evaluation of cytotoxicity for compounds 2, 9, and 2g. […] The data on the graph represent the mean from three independent experiments (n = 3 replicates per experiment). (B) The cytotoxicity of the compounds was evaluated on nontransfected HEK-293 cells using a CellTiter Blue assay. The cells were incubated for 24 h with the compounds at 10 μM. The fluorescent signal obtained from vehicle-treated cells (0.1% DMSO) was used to normalize the data to 100%, and the one obtained from wells not containing cells (BLANK) was set as 0%. The data are the combination of three biological replicates (error bars represent the SEM (n = 3)) analyzed by one-way ANOVA using Dunnet’s function (P**** < 0.0001; **< 0.002; * < 0.02; ns, non significant).
The potential cytotoxicity of the hit compounds identified, 2, 9, and 2g, was assessed at 10 μM by CellTiter Blue assay using nontransfected HEK-293 cells (Figure B).

hP2X7 [2] = molecular target: T1, hP2X7; assay: Membrane Potential Red (MPR) dye assay, HEK-293 cells stably transfected with hP2X7; conditions: 10 μM, 1 mM ATP, hP2X7 HEK-293
Method: Astrocytoma 1321 N1 (established by Dr. Gaia Pasqualetto) and HEK-293 (kindly gifted by E. Adinolfi’s group, Ferrara University) both stably transfected with hP2X7, were used to assess the activity of the small molecules selected from the VS. Cells were maintained in DMEM:F12 (PanBiotech) supplemented with 10% FBS, 1% pen-strep, and 150 μg/mL G418 (PanBiotech).
Cells were plated as described for the YO-PRO 1 dye uptake assay. MPR dye (Molecular Devices) was prepared following the manufacturer’s protocol and diluted 1:10 in ECS-LD buffer. After washing with DPBS, cells were incubated with the dye for 30 min at 37 °C. Fluorescence changes (excitation: 525 nm; emission: 560 nm) were recorded using a Clariostar plate reader during ATP-induced membrane depolarization. Baseline fluorescence was recorded for 5 cycles, and ATP was added via an automated injector (10 μL). Membrane depolarization was quantified as the ratio of the maximal fluorescence change over baseline intensity (Δ(F max–F0)/F0)).
4 Evaluation of compound 2 and 9 analogue activity using YO-PRO 1 and MPR assays. The activity of compound 2 (A and B) and 9 (C and D) analogues was evaluated in YO-PRO 1 (A and C) and MPR (B and D) assays. The compounds were tested at 10 μM and preincubated for either 20 (YO-PRO 1) or 30 min (MPR). The baseline was recorded for 5 cycles before ATP treatment (1 mM). Fluorescence was recorded for 25 (YO-PRO 1) or 5 min (MPR). The data were normalized by setting as 100% for the fluorescence measured from hP2X7 HEK-293 cells incubated with vehicle (0.1% DMSO) and treated with 1 mM ATP and 0% for the fluorescence recorded by the cells not treated with ATP. The data shown correspond to three independent biological replicates (3 technical replicates per experiment; error bars represent the SEM from the mean values of each biological replicate (n = 3)). The statistical analysis was performed with one-way Anova using Dunnett’s function (P**** < 0.0001; P*** < 0.0003; P** < 0.002; P* < 0.02).

pEC50 (hP2X7 [1])	SMILES	reduction in cell viability (HEK-293 WT cells)	activity in MPR assay (hP2X7 [2])
2.69	Nc1ncnc2c1ncn2[C@@H]1O[C@H](COP(=O)(O)OP(=O)(O)OP(=O)(O)O)[C@@H](O)[C@H]1O [ATP, reference compound]		
	O=C(NCCc1ccccc1)NC(Cc1ccc2c(c1)OCO2)Cc1ccc2c(c1)OCO2 [Compound 2]	~10%	
	O=C(CSc1ccccc1C(=O)Nc1ccnn1Cc1cccnc1)Nc1ccc2c(c1)OCO2 [Compound 9]	no significant reduction in cell viability	neither compound 9 nor its analogues significantly affected the membrane depolarization; also recorded: lack of inhibition
